# Results from patent publication US10441616B2, “Pharmaceutical composition for treating or preventing sensorineural hearing loss, containing cysteinyl leukotriene receptor antagonist and ginkgo leaf extract” (AJOU UNIVERSITY INDUSTRY-ACADEMIC COOPERATION FOUNDATION, priority 2014, dated 2019).
# Key:
# Format in all cases: in vivo, mouse
# CysLT1 receptor gene = assay: PCR of Cysltr1 gene expression in the cochlea after noise exposure; conditions: 3 day after noise exposure, montelukast post-treatment vs noise exposure group
# Protocol: At 1 day, 3 day, and 7 day, the animal was euthanized with urethane intraperitoneal injection (1 g/kg) and the bilateral temporal bone was immediately removed. Two isolated cochleae were dissolved in a TRIzol solution, the lipid was removed by adding chloroform, and then RNA gene was extracted with isopropanol alcohol. The extracted RNA gene was quantified, mixed with two types of forward and reverse primers and polymerase, and amplified at an average of 35 cycles for each primer through a PCR machine, and then changes in expression level for each gene were compared and analyzed by measuring the fluorescent degree.
# stereocilia of OHC = assay: Scanning electron microscopy (SEM) of cochlear hair cells after noise exposure; conditions: basal turn areas corresponding to 32 kHz, montelukast post-treatment compared with only-noise exposed group
# Description: The SEM was used for evaluating the form of the hair cells of the cochlea. The mouse was euthanized after intraperitoneal injection of urethane, and temporal bones were dissected at both sides from the skull in order to obtain the cochlea to be carefully cut. The fenestra rotunda of the obtained cochlea was perforated by using a sharp needle. An outer lymph space was perfused with 2% glutaraldehyde in PBS by positioning a Pasteur pipette having a modified butterfly catheter for the fenestra rotunda. Each sample was left in a glutaraldehyde solution overnight. The samples were perfused with 1% osmium tetroxide and positioned at a tissue rotator for 15 minutes. The samples were rinsed with PBS three times. Under an optical microscope, the bone part of the cochlea was carefully removed and a lateral wall was cut and removed to expose the Corti's organ. The tissue was continuously dehydrated with 50, 70, 90, 95, and 100% acetones. Each specimen was treated with hexamethyldisilazane (HMDS) and dried in air, and positioned in a stove for coating of platinum. The tissue was photographed by JSM-6380 (Jeol, Tokyo, Japan). The damage to the hair cells was analyzed in basal turn areas corresponding to 32 kHz.
# hair cells = assay: Surface preparation / Texas-Red phalloidin staining of hair cells of the Corti's organ after noise exposure; conditions: 1 week after noise exposure, 32 kHz site; montelukast post-treatment group compared with noise exposure group
# Protocol: The cut cochlea was perfused with 4% PFA in 0.1 M PB and maintained overnight at 4° C. The cochlea was washed with PBS three times for 10 minutes and then decalcified with a 5% EDTA solution for 3 days. After decalcification, an otic capsule was removed and a lateral wall, a Reissner's membrane, and a tectorial membrane were removed under an optical microscope. The Corti's organ (OC) was dyed with Texas Red VR-X phalloidin (T7471; 200 U/mL methanol diluted 1:100 in PBS; Invitrogen, Eugene, Oreg.) for 1 hour. Thereafter, the entire samples were rinsed with PBS and cut and placed on a glass slide by performing a surface treatment method (microdissected into individual turns) and using a mounting solution containing 4′6-diamidino-2-phenilindol (H-1200; 1.5 μg/ml; DAPI; Vector Laboratories). The slide was incubated for at least 15 minutes. The hair cells of the OC were observed by a confocal microscope (LSM510, Carl Zeiss, Jena, Germany).
# [1] = system: matrix metalloproteinase-3 (Mmp3); assay: Gene and protein expression of Mmp3 in inner ear tissue after noise exposure (FIG. 10)
smiles,measurement,setting,value
CC(C)(O)c1ccccc1CCC(SCC1(CC(=O)[O-])CC1)c1cccc(/C=C/c2ccc3ccc(Cl)cc3n2)c1.[Na+] (centres unmarked) [montelukast],CysLT1 receptor gene (Cysltr1) expression,CysLT1 receptor gene,significantly decreased
same,damage to the stereocilia of OHC,stereocilia of OHC,significantly reduced
same,hair cell marker (phalloidin),hair cells,significantly increased
same,Mmp3 gene expression level,[1]; montelukast post-treatment after noise exposure (FIG. 10A),reduction
same,Mmp3 protein expression level,"[1]; western blot, montelukast post-treatment after noise exposure (FIG. 10B)",reduction
